Assay results: ChEMBL document CHEMBL1151802, “Calyciphyllines N-P, alkaloids from Daphniphyllum calycinum” (J Nat Prod, 2009)

Assays:
Type in all cases: functional, cell-based
L1210 = experiment: Cytotoxicity against mouse L1210 cells
P388 = experiment: Cytotoxicity against mouse P388 cells
KB = experiment: Cytotoxicity against human KB cells

Work on `COC(=O)CC[C@@]12[C@@H]3NC4C([C@@H](O)C[C@@]45CCC[C@H]51)[C@]2(C)CC[C@@H]3C(C)C` [CALYCIPHYLLINE O] yielded an IC50 (L1210) of over 5 µg/mL, an IC50 (P388) of over 55 µg/mL and an IC50 (KB) of over 5 µg/mL.
With `COC(=O)[C@@H]1C[C@]23C4=NC[C@@H](C)[C@]45CC[C@@]2(C)[C@H](CCC2=C3[C@@H]1CC2)[C@H]5O` [CALYCIPHYLLINE N] the IC50 (L1210) was over 5 µg/mL, the IC50 (P388) was over 55 µg/mL and the IC50 (KB) was over 5 µg/mL.
